This note sets out measurements from PubChem BioAssay (NCI).

Some test systems named below: CAKI-1 renal; RXF 393 renal; HCT-116 colon; UACC-62 melanoma; SW-620 colon; LOX IMVI melanoma; MOLT-4 leukemia; OVCAR-4 ovarian; A549 NSCLC; OVCAR-8 ovarian.
Common to all, as to assay: NCI anticancer screen, dose series, 48 h

Each structure is given as a SMILES string.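 96-well plates; 48 h exposure; 5 concentrations. Endpoints by linear interpolation between flanking doses. Not reached: highest tested concentration assigned. At the GI50, growth is halved. TGI: concentration producing complete growth inhibition.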

With `C=C(CN(C)C)C(=O)c1cc(C)ccc1C`, the TGI in the test on CAKI-1 renal was 11.8 µM; in the test on RXF 393 renal, 9.52 µM; in the test on HCT-116 colon, 17.4 µM; in the test with UACC-62 melanoma it was 29.7 µM; with SW-620 colon, 5.96 µM; in the test with LOX IMVI melanoma it was 13.8 µM. The TGI was 3.86 µM in the test on MOLT-4 leukemia, 39.4 µM in the test on OVCAR-4 ovarian, 41.6 µM in the test on A549 NSCLC and 66.5 µM with OVCAR-8 ovarian.
Regarding `COc1ccc2c[n+](C)c3c4cc(OC)c(OC)cc4ccc3c2c1`, the TGI is > 100 µM in the test with CAKI-1 renal; 35.2 µM in the test on RXF 393 renal; 16.8 µM with HCT-116 colon; 41.3 µM in the test with UACC-62 melanoma; 16.4 µM in the test on SW-620 colon; 17.2 µM in the test with LOX IMVI melanoma. Moreover, the TGI in the test on MOLT-4 leukemia is 32.3 µM; in the test with OVCAR-4 ovarian it was 26.4 µM; with A549 NSCLC, 10.3 µM; with OVCAR-8 ovarian it was 13.8 µM.
In the case of `O=C(N1CCC(CN=c2cc3n(-c4ccc(Cl)cc4)c4ccccc4nc-3cc2Nc2ccc(Cl)cc2)CC1)N1CC1`, the GI50 is 1.38 µM in the test with CAKI-1 renal; 0.369 µM in the test on RXF 393 renal; 1.92 µM with UACC-62 melanoma; 0.709 µM in the test on SW-620 colon; 0.792 µM in the test on MOLT-4 leukemia; 0.71 µM in the test with A549 NSCLC. Besides, the TGI is 3.88 µM in the test on CAKI-1 renal; 1.29 µM in the test with RXF 393 renal; 3.47 µM in the test with UACC-62 melanoma; 2.05 µM in the test with SW-620 colon; 3.91 µM in the test on MOLT-4 leukemia; 11.7 µM in the test on A549 NSCLC.
For `COc1cccc(C2C(C(=O)O)=C(CO)Oc3cc4c(cc32)OCO4)c1` (configuration not stated), the TGI in the test on CAKI-1 renal, with UACC-62 melanoma, with SW-620 colon, in the test on LOX IMVI melanoma, in the test with MOLT-4 leukemia and in the test with OVCAR-8 ovarian was > 100 µM in each case.
Turning to `CC(=O)[O-].CC(=O)[O-].O=C(N/N=C/c1cc(Cl)cc(Cl)c1[OH2+])c1ccncc1.[Zn+2]`, the TGI in the test on RXF 393 renal, in the test on HCT-116 colon, with UACC-62 melanoma, with SW-620 colon, in the test with LOX IMVI melanoma and with MOLT-4 leukemia was > 100 µM in each case. Further, the TGI in the test with A549 NSCLC and in the test on OVCAR-8 ovarian was > 100 µM each time.
As to `CCN(CC)CCC(=O)c1ccccc1`, the TGI in the test with RXF 393 renal came out at 34.7 µM; with HCT-116 colon it was 31.8 µM; in the test on SW-620 colon it was 41.1 µM; with LOX IMVI melanoma, 36 µM; with MOLT-4 leukemia, 42.2 µM; with OVCAR-4 ovarian, 40.5 µM. In addition, the figures for the TGI with A549 NSCLC and in the test on OVCAR-8 ovarian were > 100 µM and 58 µM, respectively.
On to `CCOC(=O)C1(C(=O)OCC)CSC1`, for which the TGI in the test on RXF 393 renal, in the test with HCT-116 colon, in the test on SW-620 colon, with LOX IMVI melanoma, in the test on MOLT-4 leukemia and in the test on OVCAR-4 ovarian was > 100 µM in each case. Besides, the TGI with A549 NSCLC and in the test with OVCAR-8 ovarian was > 100 µM each time.
Consider `CCSc1nc(N2CCCCC2)c2cn[nH]c2n1`, for which the GI50 is 19.8 µM with CAKI-1 renal; 24.5 µM in the test with RXF 393 renal; 18.8 µM in the test with UACC-62 melanoma; 40.1 µM with SW-620 colon; 55.2 µM in the test on LOX IMVI melanoma; 88.3 µM with OVCAR-4 ovarian. Further, the GI50 with A549 NSCLC is 50.5 µM; in the test with OVCAR-8 ovarian, 43.6 µM. Besides, the TGI with CAKI-1 renal was 59.7 µM; with RXF 393 renal, 92.4 µM; in the test with UACC-62 melanoma, 47.1 µM; in the test on SW-620 colon, > 100 µM; in the test with LOX IMVI melanoma, > 100 µM; in the test on OVCAR-4 ovarian, > 100 µM. Further, the TGI in the test on A549 NSCLC and in the test with OVCAR-8 ovarian was > 100 µM each time.
Regarding `c1ccc(SC(Sc2ccccc2)c2ccc3c(c2)OCO3)cc1`, the TGI in the test on CAKI-1 renal, in the test on RXF 393 renal, in the test with HCT-116 colon, with UACC-62 melanoma, in the test with SW-620 colon and in the test on LOX IMVI melanoma was > 100 µM in each case. Also, the TGI in the test with MOLT-4 leukemia, in the test on OVCAR-4 ovarian, in the test on A549 NSCLC and in the test on OVCAR-8 ovarian was > 100 µM in each case.
In the case of `CCOc1ccc(N=Nc2ccc3oc(=O)c(/C(C)=N\NC(=O)CC(=O)Nc4ccc(Cl)cc4)cc3c2)cc1`, the TGI was > 100 µM with CAKI-1 renal; 29.6 µM in the test with RXF 393 renal; 31.5 µM in the test with HCT-116 colon; 28.9 µM in the test on UACC-62 melanoma; 38.8 µM in the test with SW-620 colon; 26.5 µM with LOX IMVI melanoma. The TGI in the test on MOLT-4 leukemia came to 28.8 µM; with OVCAR-4 ovarian, 37.9 µM; with A549 NSCLC, 43.3 µM; with OVCAR-8 ovarian, 34.4 µM.
`COC(=O)C1=COC2OC3/C(=C\c4ccc(O)c(OC)c4)C(=O)OC34C=CC1C24` (configuration not stated): the TGI in the test on CAKI-1 renal is 41.7 µM; in the test with HCT-116 colon, 34.4 µM; in the test on UACC-62 melanoma it was 36.4 µM; in the test with SW-620 colon, 35.9 µM; in the test with MOLT-4 leukemia, > 100 µM; in the test with OVCAR-4 ovarian, 34.4 µM. Further, the TGI amounted to 32.4 µM in the test with A549 NSCLC and 37.7 µM in the test with OVCAR-8 ovarian.
As to `CC(=O)[O-].[Ni].c1ccc(/C(=N\Nc2ccccn2)c2ccccn2)cc1`, the TGI in the test with CAKI-1 renal turned out to be 39.3 µM; in the test with RXF 393 renal, 30 µM; in the test with HCT-116 colon, 18 µM; in the test with UACC-62 melanoma, 18.8 µM; in the test with SW-620 colon, 32.2 µM; with LOX IMVI melanoma, 22.3 µM. For the same molecule, the TGI in the test on MOLT-4 leukemia is 24.3 µM; in the test with OVCAR-4 ovarian, > 59.7 µM; in the test on A549 NSCLC, 49.2 µM; with OVCAR-8 ovarian it was 31.6 µM. In the test on MOLT-4 leukemia, the GI50 was 0.076 µM.
Consider `O=C(O)c1cncc(C(=O)O)c1`, for which the TGI in the test on CAKI-1 renal, with RXF 393 renal, with HCT-116 colon, in the test on UACC-62 melanoma, in the test on SW-620 colon and with LOX IMVI melanoma was > 100 µM throughout. For the same molecule, the TGI with MOLT-4 leukemia, with OVCAR-4 ovarian, with A549 NSCLC and in the test on OVCAR-8 ovarian was > 100 µM throughout.
For the molecule `COc1ccc2c(c1)O[C@H]1c3ccc(O)cc3OC[C@@H]21`, the TGI in the test on CAKI-1 renal was > 100 µM; in the test with RXF 393 renal, 54.9 µM; in the test on HCT-116 colon, > 100 µM; with UACC-62 melanoma, 29.3 µM; in the test on SW-620 colon, > 100 µM; with LOX IMVI melanoma, 32.2 µM. The TGI is 55.2 µM in the test with MOLT-4 leukemia, > 100 µM in the test with OVCAR-4 ovarian, > 100 µM in the test on A549 NSCLC and > 100 µM with OVCAR-8 ovarian.
`O=c1[nH]cc(N(CCCl)CCCl)c(=O)[nH]1`: the TGI in the test on CAKI-1 renal is 56.7 µM; in the test with RXF 393 renal, 81.1 µM; in the test with HCT-116 colon, 179 µM; in the test on UACC-62 melanoma, 60.6 µM; in the test on SW-620 colon, 249 µM; in the test with LOX IMVI melanoma, 165 µM. Further, the TGI with MOLT-4 leukemia stood at 28.3 µM; with OVCAR-4 ovarian, 199 µM; in the test with A549 NSCLC, 314 µM; with OVCAR-8 ovarian, 201 µM.
